Experimental findings from ChEMBL document CHEMBL3045260, “Synthesis, anti-microbial evaluation, and QSAR studies of 4-amino-3-hydroxy-naphthalene-1-sulfonic acid derivatives” (2012) are described below.

≈ marks a conversion by molar mass, not a printed value.

Holding throughout (assay type): functional
Assay [1] relates to Bacillus subtilis. Nature of the assay: Bactericidal activity against Bacillus subtilis MTCC 2063.
For assay [2], the system named is Staphylococcus aureus. Briefly: Ratio of MBC to MIC for Staphylococcus aureus MTCC 2901.
The test system of assay [3] is Bacillus subtilis. Briefly: Antibacterial activity against Bacillus subtilis MTCC 2063 after 24 hr by tube dilution method.
Assay [4] has as its system Staphylococcus aureus. Nature of the assay: Antibacterial activity against Staphylococcus aureus MTCC 2901 after 24 hr by tube dilution method.
For assay [5], the system named is Staphylococcus aureus. Nature of the assay: Bactericidal activity against Staphylococcus aureus MTCC 2901.
In assay [6] the test system is Escherichia coli. Briefly: Antibacterial activity against Escherichia coli MTCC 1652 after 24 hr by tube dilution method.
For assay [7], the system named is Candida albicans. Briefly: Ratio of MFC to MIC for Candida albicans MTCC 227.
The test system of assay [8] is Escherichia coli. Briefly: Bactericidal activity against Escherichia coli MTCC 1652.
Assay [9] relates to Aspergillus niger. Briefly: Antifungal activity against Aspergillus niger MTCC 8189 after 7 days by tube dilution method.
Assay [10] concerns Candida albicans. Briefly: Antifungal activity against Candida albicans MTCC 227 after 48 hr by tube dilution method.
In assay [11] the test system is Aspergillus niger. Nature of the assay: Ratio of MFC to MIC for Aspergillus niger MTCC 8189.
Assay [12] relates to Candida albicans. Briefly: Fungicidal activity against Candida albicans MTCC 227.
The test system of assay [13] is Bacillus subtilis. Nature of the assay: Ratio of MBC to MIC for Bacillus subtilis MTCC 2063.
In assay [14] the test system is Escherichia coli. Briefly: Ratio of MBC to MIC for Escherichia coli MTCC 1652.
Assay [15] concerns Aspergillus niger. Briefly: Fungicidal activity against Aspergillus niger MTCC 8189.

As usually defined, the MBC is the lowest tested concentration that kills the bacteria rather than only halting them. Low readings indicate more potent killing, high ones less potent killing. For orientation: MFC means the lowest tested concentration that kills the fungus rather than only halting it. Turning to `COc1cc(/C=N/c2c(O)cc(S(=O)(=O)O)c3ccccc23)cc(OC)c1OC`, the MBC in the assay with Bacillus subtilis [1], against Staphylococcus aureus [5] and in the assay on Escherichia coli [8] was above 150 µM in each case. The Ratio with Staphylococcus aureus [2], in the assay with Candida albicans [7], in the assay on Aspergillus niger [11], with Bacillus subtilis [13] and in the assay with Escherichia coli [14] was 3 in each case. Also, the “-logMIC” value in the assay with Bacillus subtilis [3] was 1.52; in the assay on Staphylococcus aureus [4], 1.22; with Escherichia coli [6] it was 1.52; in the assay on Aspergillus niger [9] it was 1.52; with Candida albicans [10], 1.52. Besides, the MFC against Candida albicans [12] and in the assay with Aspergillus niger [15] was above 150 µM throughout.
Regarding `COc1cccc(/C=N/c2c(O)cc(S(=O)(=O)O)c3ccccc23)c1`, the figures for the MBC in the assay with Bacillus subtilis [1], against Staphylococcus aureus [5] and against Escherichia coli [8] were above 120 µM, 120 µM (≈ 42.9 µg/mL) and above 120 µM, respectively. For the same compound, the Ratio in the assay with Staphylococcus aureus [2], with Candida albicans [7], in the assay with Aspergillus niger [11], with Bacillus subtilis [13] and in the assay on Escherichia coli [14] was 3 each time. Also, the “-logMIC” value in the assay on Bacillus subtilis [3] is 1.46; in the assay with Staphylococcus aureus [4], 1.16; with Escherichia coli [6], 1.46; in the assay with Aspergillus niger [9], 1.46; in the assay with Candida albicans [10] it was 1.46. Besides, the MFC with Candida albicans [12] and in the assay with Aspergillus niger [15] was above 120 µM each time.
`O=S(=O)(O)c1cc(O)c(/N=C/C=C/c2ccccc2)c2ccccc12`: the MBC in the assay on Bacillus subtilis [1], with Staphylococcus aureus [5] and against Escherichia coli [8] was above 140 µM in each case. Moreover, the Ratio in the assay with Staphylococcus aureus [2], with Candida albicans [7], in the assay with Aspergillus niger [11], with Bacillus subtilis [13] and with Escherichia coli [14] was 3 each time. In addition, the “-logMIC” value with Bacillus subtilis [3] was determined as 1.45; in the assay on Staphylococcus aureus [4] it was 1.15; with Escherichia coli [6], 1.45; in the assay with Aspergillus niger [9], 1.45; in the assay on Candida albicans [10] it was 1.45. For the same compound, the MFC against Candida albicans [12] is above 140 µM; in the assay on Aspergillus niger [15] it was 140 µM (≈ 49.5 µg/mL).
Consider `COc1ccc(/C=N/c2c(O)cc(S(=O)(=O)O)c3ccccc23)cc1OC`, for which the MBC in the assay with Bacillus subtilis [1], in the assay with Staphylococcus aureus [5] and in the assay on Escherichia coli [8] was above 150 µM each time. Moreover, the Ratio with Staphylococcus aureus [2], with Candida albicans [7], in the assay on Aspergillus niger [11], in the assay with Bacillus subtilis [13] and in the assay with Escherichia coli [14] was 3 throughout. Moreover, the “-logMIC” value is on record as 1.49 with Bacillus subtilis [3]; 1.19 in the assay with Staphylococcus aureus [4]; 1.49 in the assay on Escherichia coli [6]; 1.49 in the assay with Aspergillus niger [9]; 1.49 in the assay on Candida albicans [10]. Besides, the MFC with Candida albicans [12] and in the assay on Aspergillus niger [15] was above 150 µM in each case.
For `O=S(=O)(O)c1cc(O)c(/N=C/c2ccccc2)c2ccccc12`, the MBC in the assay with Bacillus subtilis [1], with Staphylococcus aureus [5] and in the assay on Escherichia coli [8] was above 130 µM each time. For the same compound, the Ratio with Staphylococcus aureus [2], in the assay with Candida albicans [7], in the assay with Aspergillus niger [11], in the assay with Bacillus subtilis [13] and with Escherichia coli [14] was 3 in each case. Also, the “-logMIC” value in the assay on Bacillus subtilis [3] is 1.42; in the assay on Staphylococcus aureus [4] it was 1.12; in the assay on Escherichia coli [6] it was 1.42; in the assay with Aspergillus niger [9], 1.42; in the assay on Candida albicans [10], 1.42. Moreover, the MFC against Candida albicans [12] and in the assay with Aspergillus niger [15] was above 130 µM in each case.
Regarding `O=CCCC/C=N/c1c(O)cc(S(=O)(=O)O)c2ccccc12`, the MBC against Bacillus subtilis [1], in the assay with Staphylococcus aureus [5] and against Escherichia coli [8] was above 130 µM each time. Moreover, the Ratio in the assay with Staphylococcus aureus [2], in the assay on Candida albicans [7], with Aspergillus niger [11], in the assay with Bacillus subtilis [13] and in the assay on Escherichia coli [14] was 3 in each case. For the same compound, the “-logMIC” value came out at 1.41 in the assay on Bacillus subtilis [3]; 1.11 with Staphylococcus aureus [4]; 1.41 in the assay with Escherichia coli [6]; 1.41 in the assay on Aspergillus niger [9]; 1.41 with Candida albicans [10]. The MFC against Candida albicans [12] is above 130 µM; in the assay with Aspergillus niger [15], 30 µM (≈ 9.64 µg/mL).
Take `O=S(=O)(O)c1cc(O)c(/N=C/c2ccccc2Cl)c2ccccc12`: the MBC in the assay on Bacillus subtilis [1], against Staphylococcus aureus [5] and in the assay on Escherichia coli [8] was above 140 µM throughout. The Ratio with Staphylococcus aureus [2], in the assay with Candida albicans [7], in the assay with Aspergillus niger [11], in the assay with Bacillus subtilis [13] and in the assay on Escherichia coli [14] was 3 in each case. The “-logMIC” value was determined as 1.46 in the assay on Bacillus subtilis [3]; 1.16 with Staphylococcus aureus [4]; 1.46 in the assay with Escherichia coli [6]; 1.46 with Aspergillus niger [9]; 1.46 with Candida albicans [10]. Besides, the MFC against Candida albicans [12] and in the assay on Aspergillus niger [15] was above 140 µM each time.
In the case of `O=S(=O)(O)c1cc(O)c(/N=C/c2cccc(Cl)c2)c2ccccc12`, the MBC with Bacillus subtilis [1] is above 140 µM; against Staphylococcus aureus [5], 140 µM (≈ 50.7 µg/mL); against Escherichia coli [8], above 140 µM. Besides, the Ratio in the assay on Staphylococcus aureus [2], with Candida albicans [7], in the assay on Aspergillus niger [11], in the assay on Bacillus subtilis [13] and in the assay on Escherichia coli [14] was 3 each time. The “-logMIC” value with Bacillus subtilis [3] was determined as 1.46; in the assay on Staphylococcus aureus [4], 1.16; in the assay on Escherichia coli [6], 1.46; with Aspergillus niger [9] it was 1.46; in the assay with Candida albicans [10] it was 1.46. The MFC in the assay on Candida albicans [12] and in the assay on Aspergillus niger [15] was above 140 µM throughout.
For the compound `O=[N+]([O-])c1cccc(/C=N/c2c(O)cc(S(=O)(=O)O)c3ccccc23)c1`, the MBC in the assay with Bacillus subtilis [1], against Staphylococcus aureus [5] and in the assay on Escherichia coli [8] was above 140 µM in each case. For the same compound, the Ratio in the assay on Staphylococcus aureus [2], with Candida albicans [7], in the assay with Aspergillus niger [11], in the assay with Bacillus subtilis [13] and in the assay on Escherichia coli [14] was 3 each time. The “-logMIC” value stood at 1.47 in the assay on Bacillus subtilis [3]; 1.17 in the assay on Staphylococcus aureus [4]; 1.47 in the assay on Escherichia coli [6]; 1.47 in the assay on Aspergillus niger [9]; 1.47 in the assay on Candida albicans [10]. The MFC against Candida albicans [12] and in the assay on Aspergillus niger [15] was above 140 µM throughout.
For `O=Cc1ccc(/C=N/c2c(O)cc(S(=O)(=O)O)c3ccccc23)cc1`, the minimum bactericidal concentration (MBC) in the assay on Bacillus subtilis [1] was above 140 µM; in the assay on Staphylococcus aureus [5], 140 µM (≈ 49.8 µg/mL); with Escherichia coli [8], above 140 µM. In addition, the Ratio in the assay with Staphylococcus aureus [2], in the assay on Candida albicans [7], in the assay on Aspergillus niger [11], in the assay with Bacillus subtilis [13] and in the assay with Escherichia coli [14] was 3 in each case. The “-logMIC” value with Bacillus subtilis [3] is 1.45; in the assay with Staphylococcus aureus [4], 1.15; in the assay on Escherichia coli [6], 1.45; in the assay on Aspergillus niger [9] it was 1.45; in the assay with Candida albicans [10], 1.45. Moreover, the values for the MFC in the assay with Candida albicans [12] and against Aspergillus niger [15] were above 140 µM and 140 µM (≈ 49.8 µg/mL), respectively.
Turning to `O=S(=O)(O)c1cc(O)c(/N=C/c2ccc(Cl)cc2)c2ccccc12`, the MBC against Bacillus subtilis [1], with Staphylococcus aureus [5] and with Escherichia coli [8] was above 140 µM in each case. The Ratio in the assay with Staphylococcus aureus [2], with Candida albicans [7], in the assay with Aspergillus niger [11], in the assay with Bacillus subtilis [13] and in the assay with Escherichia coli [14] was 3 in each case. Moreover, the “-logMIC” value in the assay on Bacillus subtilis [3], in the assay on Staphylococcus aureus [4], with Escherichia coli [6], in the assay on Aspergillus niger [9] and in the assay with Candida albicans [10] was 1.16 each time. The MFC with Candida albicans [12] and with Aspergillus niger [15] was above 140 µM in each case.
On to `COc1ccc(/C=N/c2c(O)cc(S(=O)(=O)O)c3ccccc23)cc1`, for which the MBC with Bacillus subtilis [1], in the assay with Staphylococcus aureus [5] and with Escherichia coli [8] was above 130 µM each time. Moreover, the Ratio in the assay on Staphylococcus aureus [2], in the assay on Candida albicans [7], in the assay with Aspergillus niger [11], with Bacillus subtilis [13] and in the assay with Escherichia coli [14] was 3 each time. For the same compound, the “-logMIC” value in the assay with Bacillus subtilis [3] stood at 1.46; with Staphylococcus aureus [4] it was 1.16; with Escherichia coli [6], 1.46; with Aspergillus niger [9], 1.46; in the assay with Candida albicans [10] it was 1.46. The MFC against Candida albicans [12] was above 130 µM; with Aspergillus niger [15] it was 130 µM (≈ 46.5 µg/mL).
As for `O=S(=O)(O)c1cc(O)c(/N=C/c2ccc(Cl)cc2Cl)c2ccccc12`, the MBC in the assay on Bacillus subtilis [1], with Staphylococcus aureus [5] and in the assay with Escherichia coli [8] was above 140 µM throughout. Also, the Ratio in the assay on Staphylococcus aureus [2], in the assay on Candida albicans [7], with Aspergillus niger [11], with Bacillus subtilis [13] and in the assay on Escherichia coli [14] was 3 each time. The “-logMIC” value in the assay on Bacillus subtilis [3] was 1.5; with Staphylococcus aureus [4] it was 1.2; in the assay with Escherichia coli [6], 1.5; in the assay with Aspergillus niger [9] it was 1.5; with Candida albicans [10], 1.5. The MFC with Candida albicans [12] and against Aspergillus niger [15] was above 140 µM each time.
